Results published in patent US9707305B2, “Formulas for diagnosing and treating hormone-dependent cancers and cancers of the organs responsible for steroid hormone synthesis” (Commissariat à l'énergie atomique et aux énergies …, priority 2011, dated 2017).

Test: Biodistribution of the nano-emulsion of Example 1.1 (radioactivity and fluorescence per organ)
Format: in vivo
Method: In the following examples, the radioactivity was counted with the TRiCarb Counter (Ref: Packard, Liquid Scintillation Analyzers; Models 2200CA).
Fluobeam 700 (Fluoptics) is the apparatus with which the whole of the organs from the biodistribution were analyzed in fluorescence as well as the one with which the biodistribution kinetics of the nano-emulsions were established in vivo. This imaging system allows viewing of the fluorescence in spectral bands from 700 to 850 nm for a 650 nm excitation. The apparatus consists of an electric case containing the laser of class 3B, its power supply and an optical head containing the CCD camera.
The nano-emulsions of Example 1 were injected into FVB female and male mice. As a comparison, a mixture of three tracers ([3H]CHE, [14C]CO and DiD) (not formulated as a nano-emulsion) was injected in order to observe the distribution of the tracers in the absence of droplets being used as a distribution carrier.
Tables 6 to 14 provide the biodistribution results of each tracer ([3H]CHE, [14C]CO and DiD) expressed as a percentage of the dose injected per gram of tissue (or [3H]CHE and [14C]CO) or as fluorescence intensity (for DiD) depending on the organ of the mouse, 15 minutes (Table 6), 2 hours (Table 7), 4 hours (Table 8), 6 hours (Table 9), 16 hours (Table 10), 24 hours (Table 11), 72 hours (Table 12), 120 hours (Table 13) and 168 hours (Table 14), after injection into an FVB female mouse of the nano-emulsion of Example 1.1. (nano-emulsion according to the invention comprising the three tracers ([3H]CHE, [14C]CO and DiD).

[1] = 2 h after injection of nano-emulsion of Example 1.1, FVB female mouse
[2] = 4 h after injection of nano-emulsion of Example 1.1, FVB female mouse
[3] = 16 h (Table 9 head) after injection of nano-emulsion of Example 1.1, FVB female mouse
[4] = 24 h (Table 10 head) after injection of nano-emulsion of Example 1.1, FVB female mouse
[5] = 48 h (Table 11 head) after injection of nano-emulsion of Example 1.1, FVB female mouse
[6] = 72 h after injection of nano-emulsion of Example 1.1, FVB female mouse
[7] = 120 h after injection of nano-emulsion of Example 1.1, FVB female mouse

## CCCCCCCC/C=C\CCCCCCC[14C](=O)O[C@H]1CC[C@@]2(C)C(=CC[C@H]3[C@@H]4CC[C@H]([C@H](C)CCCC(C)C)[C@@]4(C)CC[C@@H]32)C1 [[14C]CO, cholesteryl oleate]
[1]
  biodistribution, Lung (MEAN): 4.42 % of injected dose per gram of
  biodistribution, Muscle (MEAN): 0.48 % of injected dose per gram of
  biodistribution, Ovary (MEAN): 22.72 % of injected dose per gram of
  biodistribution, Pancreas (MEAN): 1.68 % of injected dose per gram of
  biodistribution, Salivary glands (MEAN): 1.74 % of injected dose per gram of
  biodistribution, Spleen (MEAN): 2.87 % of injected dose per gram of
  biodistribution, Uterus (MEAN): 2.21 % of injected dose per gram of
[2]
  biodistribution, Adrenal glands (MEAN): 21.37 % of injected dose per gram of
  biodistribution, Brain (MEAN): 0.23 % of injected dose per gram of
  biodistribution, Fat (MEAN): 1.46 % of injected dose per gram of
  biodistribution, Heart (MEAN): 3.75 % of injected dose per gram of
  biodistribution, Intestine (MEAN): 1.80 % of injected dose per gram of
  biodistribution, Kidney (MEAN): 2.27 % of injected dose per gram of
  biodistribution, Liver (MEAN): 13.69 % of injected dose per gram of
  biodistribution, Lungs (MEAN): 3.09 % of injected dose per gram of
  biodistribution, Muscle (MEAN): 0.38 % of injected dose per gram of
  biodistribution, Ovary (MEAN): 25.14 % of injected dose per gram of
  biodistribution, Pancreas (MEAN): 1.17 % of injected dose per gram of
  biodistribution, Salivary glands (MEAN): 1.47 % of injected dose per gram of
  biodistribution, Spleen (MEAN): 1.97 % of injected dose per gram of
  biodistribution, Uterus (MEAN): 1.39 % of injected dose per gram of
[3]
  biodistribution, Adrenal glands (MEAN): 30.64 % of injected dose per gram of
  biodistribution, Brain (MEAN): 0.13 % of injected dose per gram of
  biodistribution, Fat (MEAN): 8.06 % of injected dose per gram of
  biodistribution, Heart (MEAN): 2.00 % of injected dose per gram of
  biodistribution, Intestine (MEAN): 2.53 % of injected dose per gram of
  biodistribution, Kidney (MEAN): 1.75 % of injected dose per gram of
  biodistribution, Liver (MEAN): 8.68 % of injected dose per gram of
  biodistribution, Lungs (MEAN): 2.80 % of injected dose per gram of
  biodistribution, Muscle (MEAN): 1.59 % of injected dose per gram of
  biodistribution, Ovary (MEAN): 21.45 % of injected dose per gram of
  biodistribution, Pancreas (MEAN): 1.19 % of injected dose per gram of
  biodistribution, Salivary glands (MEAN): 2.02 % of injected dose per gram of
  biodistribution, Spleen (MEAN): 1.89 % of injected dose per gram of
  biodistribution, Uterus (MEAN): 2.76 % of injected dose per gram of
[4]
  biodistribution, Adrenal glands (MEAN): 13.05 % of injected dose per gram of
  biodistribution, Brain (MEAN): 0.11 % of injected dose per gram of
  biodistribution, Fat (MEAN): 2.28 % of injected dose per gram of
  biodistribution, Heart (MEAN): 1.31 % of injected dose per gram of
  biodistribution, Intestine (MEAN): 1.22 % of injected dose per gram of
  biodistribution, Kidney (MEAN): 1.03 % of injected dose per gram of
  biodistribution, Liver (MEAN): 5.39 % of injected dose per gram of
  biodistribution, Lung (MEAN): 1.30 % of injected dose per gram of
  biodistribution, Muscle (MEAN): 1.01 % of injected dose per gram of
  biodistribution, Ovary (MEAN): 9.58 % of injected dose per gram of
  biodistribution, Pancreas (MEAN): 0.67 % of injected dose per gram of
  biodistribution, Salivary glands (MEAN): 1.76 % of injected dose per gram of
  biodistribution, Spleen (MEAN): 1.10 % of injected dose per gram of
  biodistribution, Uterus (MEAN): 0.96 % of injected dose per gram of
[5]
  biodistribution, Adrenal glands (MEAN): 10.83 % of injected dose per gram of
  biodistribution, Brain (MEAN): 0.11 % of injected dose per gram of
  biodistribution, Fat (MEAN): 3.46 % of injected dose per gram of
  biodistribution, Heart (MEAN): 0.87 % of injected dose per gram of
  biodistribution, Intestine (MEAN): 1.01 % of injected dose per gram of
  biodistribution, Kidney (MEAN): 0.77 % of injected dose per gram of
  biodistribution, Liver (MEAN): 1.53 % of injected dose per gram of
  biodistribution, Lungs (MEAN): 1.28 % of injected dose per gram of
  biodistribution, Muscle (MEAN): 0.34 % of injected dose per gram of
  biodistribution, Ovary (MEAN): 6.46 % of injected dose per gram of
  biodistribution, Pancreas (MEAN): 0.70 % of injected dose per gram of
  biodistribution, Salivary glands (MEAN): 1.20 % of injected dose per gram of
  biodistribution, Spleen (MEAN): 1.03 % of injected dose per gram of
  biodistribution, Uterus (MEAN): 1.24 % of injected dose per gram of
[6]
  biodistribution, Adrenal glands (MEAN): 9.36 % of injected dose per gram of
  biodistribution, Brain (MEAN): 0.10 % of injected dose per gram of
  biodistribution, Fat (MEAN): 5.01 % of injected dose per gram of
  biodistribution, Heart (MEAN): 0.64 % of injected dose per gram of
  biodistribution, Intestine (MEAN): 0.62 % of injected dose per gram of
  biodistribution, Kidney (MEAN): 0.66 % of injected dose per gram of
  biodistribution, Liver (MEAN): 0.75 % of injected dose per gram of
  biodistribution, Lungs (MEAN): 0.88 % of injected dose per gram of
  biodistribution, Muscle (MEAN): 0.28 % of injected dose per gram of
  biodistribution, Ovary (MEAN): 3.04 % of injected dose per gram of
  biodistribution, Pancreas (MEAN): 0.50 % of injected dose per gram of
  biodistribution, Salivary glands (MEAN): 1.16 % of injected dose per gram of
  biodistribution, Spleen (MEAN): 0.75 % of injected dose per gram of
  biodistribution, Uterus (MEAN): 1.00 % of injected dose per gram of
[7]
  biodistribution, Fat (MEAN): 2.42 % of injected dose per gram of
  biodistribution, Kidney (MEAN): 0.40 % of injected dose per gram of
